ChEMBL document CHEMBL5678818, “Discovery of potent SOS1 inhibitors that block RAS activation via disruption of the RAS-SOS1 interaction” (Proc Natl Acad Sci U S A, 2019)

Experiments:
[1] = molecular target: T1, Ephrin type-B receptor 1 (Homo sapiens) (UniProt P54762); test: Inhibition of EPHB1 (unknown origin) assessed as residual activity at 1000 nM by KINOMEscan analysis relative to control
T1 sequence (whole entry): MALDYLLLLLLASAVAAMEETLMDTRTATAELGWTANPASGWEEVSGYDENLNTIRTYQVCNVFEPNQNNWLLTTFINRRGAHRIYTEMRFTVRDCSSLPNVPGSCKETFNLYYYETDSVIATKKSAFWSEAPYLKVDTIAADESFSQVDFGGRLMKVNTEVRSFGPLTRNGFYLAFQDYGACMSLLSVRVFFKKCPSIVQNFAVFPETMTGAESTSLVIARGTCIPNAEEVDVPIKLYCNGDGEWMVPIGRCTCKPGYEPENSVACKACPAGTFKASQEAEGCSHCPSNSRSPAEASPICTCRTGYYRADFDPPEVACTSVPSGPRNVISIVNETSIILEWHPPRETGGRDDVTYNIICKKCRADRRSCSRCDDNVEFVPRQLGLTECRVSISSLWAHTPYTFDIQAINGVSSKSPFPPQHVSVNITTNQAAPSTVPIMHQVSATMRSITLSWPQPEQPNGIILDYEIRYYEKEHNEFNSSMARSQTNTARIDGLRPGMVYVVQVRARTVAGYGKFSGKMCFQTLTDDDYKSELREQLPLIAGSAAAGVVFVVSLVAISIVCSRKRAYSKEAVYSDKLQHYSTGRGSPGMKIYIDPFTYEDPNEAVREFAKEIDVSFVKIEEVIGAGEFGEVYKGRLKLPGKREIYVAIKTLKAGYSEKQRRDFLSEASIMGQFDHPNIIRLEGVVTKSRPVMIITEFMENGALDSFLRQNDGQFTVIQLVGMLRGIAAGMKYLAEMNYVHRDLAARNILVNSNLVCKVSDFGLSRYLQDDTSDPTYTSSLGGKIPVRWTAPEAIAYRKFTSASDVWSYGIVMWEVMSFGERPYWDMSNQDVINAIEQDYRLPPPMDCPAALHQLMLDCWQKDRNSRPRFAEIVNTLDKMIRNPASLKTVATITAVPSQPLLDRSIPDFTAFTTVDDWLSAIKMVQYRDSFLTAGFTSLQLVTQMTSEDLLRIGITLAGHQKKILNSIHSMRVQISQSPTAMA

[2] = test system: Fibroblast growth factor receptor 3 (Homo sapiens), P22607 [G697C]; test: Inhibition of FGFR3 G697C mutant (unknown origin) assessed as residual activity at 1000 nM by KINOMEscan analysis relative to control
Fibroblast growth factor receptor 3 (Homo sapiens), P22607 [G697C], sequence (P22607 whole entry G697C): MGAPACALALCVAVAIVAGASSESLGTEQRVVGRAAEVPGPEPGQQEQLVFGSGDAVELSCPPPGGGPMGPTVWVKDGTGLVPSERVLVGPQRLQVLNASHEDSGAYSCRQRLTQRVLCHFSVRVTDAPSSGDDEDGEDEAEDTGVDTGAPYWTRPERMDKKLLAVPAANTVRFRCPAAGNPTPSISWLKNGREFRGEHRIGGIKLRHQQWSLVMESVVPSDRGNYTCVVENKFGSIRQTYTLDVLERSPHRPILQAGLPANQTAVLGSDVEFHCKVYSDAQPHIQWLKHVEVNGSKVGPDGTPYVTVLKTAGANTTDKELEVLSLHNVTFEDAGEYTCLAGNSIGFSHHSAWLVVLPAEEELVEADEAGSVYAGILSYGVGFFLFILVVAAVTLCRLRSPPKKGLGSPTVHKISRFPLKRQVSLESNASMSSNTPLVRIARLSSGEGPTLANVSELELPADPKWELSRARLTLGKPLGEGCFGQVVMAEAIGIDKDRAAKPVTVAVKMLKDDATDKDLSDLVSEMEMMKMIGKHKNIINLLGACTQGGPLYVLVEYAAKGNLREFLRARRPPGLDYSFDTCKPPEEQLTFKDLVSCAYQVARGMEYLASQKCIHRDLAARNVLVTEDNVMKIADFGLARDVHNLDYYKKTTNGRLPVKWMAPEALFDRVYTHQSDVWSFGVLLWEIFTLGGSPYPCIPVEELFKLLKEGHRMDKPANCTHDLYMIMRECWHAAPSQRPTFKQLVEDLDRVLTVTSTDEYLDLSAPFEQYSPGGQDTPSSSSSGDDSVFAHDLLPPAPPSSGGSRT

[3] = test system: Receptor-type tyrosine-protein kinase FLT3 (Homo sapiens), P36888 [D835Y]; test: Inhibition of FLT3 D835Y mutant (unknown origin) assessed as residual activity at 1000 nM by KINOMEscan analysis relative to control
[4] = molecular target: Myosin light chain kinase, smooth muscle (Homo sapiens) (UniProt Q15746); test: Inhibition of MLCK (unknown origin) assessed as residual activity at 1000 nM by KINOMEscan analysis relative to control
Myosin light chain kinase, smooth muscle (Homo sapiens), sequence (Q15746 whole entry): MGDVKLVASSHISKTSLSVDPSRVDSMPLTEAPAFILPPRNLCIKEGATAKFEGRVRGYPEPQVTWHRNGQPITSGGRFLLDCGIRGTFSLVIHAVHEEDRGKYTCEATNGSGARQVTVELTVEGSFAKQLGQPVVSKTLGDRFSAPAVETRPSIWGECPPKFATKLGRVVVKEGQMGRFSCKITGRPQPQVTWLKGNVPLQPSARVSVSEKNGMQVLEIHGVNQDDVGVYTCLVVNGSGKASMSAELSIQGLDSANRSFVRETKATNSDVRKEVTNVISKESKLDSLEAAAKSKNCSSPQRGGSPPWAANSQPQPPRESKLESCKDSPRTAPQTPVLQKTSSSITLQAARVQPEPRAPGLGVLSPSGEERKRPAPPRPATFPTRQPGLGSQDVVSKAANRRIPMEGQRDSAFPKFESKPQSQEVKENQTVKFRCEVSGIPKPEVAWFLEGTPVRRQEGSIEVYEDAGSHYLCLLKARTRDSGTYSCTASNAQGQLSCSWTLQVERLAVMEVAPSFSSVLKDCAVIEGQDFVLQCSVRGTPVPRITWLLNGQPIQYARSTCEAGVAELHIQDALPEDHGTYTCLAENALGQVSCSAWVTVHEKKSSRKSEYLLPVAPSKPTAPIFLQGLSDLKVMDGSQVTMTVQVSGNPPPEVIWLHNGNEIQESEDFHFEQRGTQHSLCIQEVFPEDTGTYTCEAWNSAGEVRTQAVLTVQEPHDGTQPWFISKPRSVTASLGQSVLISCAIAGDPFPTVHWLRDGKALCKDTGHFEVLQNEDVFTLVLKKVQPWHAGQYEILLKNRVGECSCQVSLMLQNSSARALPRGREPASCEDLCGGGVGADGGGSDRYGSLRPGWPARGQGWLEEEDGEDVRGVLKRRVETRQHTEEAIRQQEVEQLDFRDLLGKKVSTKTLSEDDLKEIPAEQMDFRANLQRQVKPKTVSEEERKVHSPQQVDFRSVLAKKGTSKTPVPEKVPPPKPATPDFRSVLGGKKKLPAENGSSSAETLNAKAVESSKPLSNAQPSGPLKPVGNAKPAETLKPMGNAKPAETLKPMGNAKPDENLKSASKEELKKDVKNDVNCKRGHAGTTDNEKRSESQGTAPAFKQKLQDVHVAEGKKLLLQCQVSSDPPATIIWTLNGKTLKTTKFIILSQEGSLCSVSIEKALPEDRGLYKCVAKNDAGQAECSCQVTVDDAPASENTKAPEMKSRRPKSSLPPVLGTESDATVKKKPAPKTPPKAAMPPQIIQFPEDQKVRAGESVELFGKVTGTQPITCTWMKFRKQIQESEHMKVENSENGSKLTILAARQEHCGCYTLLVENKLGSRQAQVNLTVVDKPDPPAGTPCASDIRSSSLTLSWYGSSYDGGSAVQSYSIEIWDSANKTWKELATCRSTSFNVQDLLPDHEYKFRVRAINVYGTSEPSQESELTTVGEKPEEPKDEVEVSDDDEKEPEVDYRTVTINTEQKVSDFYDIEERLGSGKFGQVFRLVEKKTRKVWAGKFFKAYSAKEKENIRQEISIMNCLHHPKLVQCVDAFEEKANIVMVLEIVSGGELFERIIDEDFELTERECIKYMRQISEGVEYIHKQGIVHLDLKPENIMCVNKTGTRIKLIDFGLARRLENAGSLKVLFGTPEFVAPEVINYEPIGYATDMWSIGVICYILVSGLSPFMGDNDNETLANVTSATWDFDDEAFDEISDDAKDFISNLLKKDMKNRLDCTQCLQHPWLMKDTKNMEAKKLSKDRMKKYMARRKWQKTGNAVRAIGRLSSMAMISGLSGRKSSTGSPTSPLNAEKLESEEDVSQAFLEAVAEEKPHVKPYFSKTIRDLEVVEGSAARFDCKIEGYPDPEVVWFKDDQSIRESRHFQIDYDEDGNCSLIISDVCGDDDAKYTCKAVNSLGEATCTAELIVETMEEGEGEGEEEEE

[5] = molecular target: Interferon-induced, double-stranded RNA-activated protein kinase (Homo sapiens) (UniProt P19525); test: Inhibition of PRKR (unknown origin) assessed as residual activity at 1000 nM by KINOMEscan analysis relative to control
Interferon-induced, double-stranded RNA-activated protein kinase (Homo sapiens), sequence (P19525 whole entry): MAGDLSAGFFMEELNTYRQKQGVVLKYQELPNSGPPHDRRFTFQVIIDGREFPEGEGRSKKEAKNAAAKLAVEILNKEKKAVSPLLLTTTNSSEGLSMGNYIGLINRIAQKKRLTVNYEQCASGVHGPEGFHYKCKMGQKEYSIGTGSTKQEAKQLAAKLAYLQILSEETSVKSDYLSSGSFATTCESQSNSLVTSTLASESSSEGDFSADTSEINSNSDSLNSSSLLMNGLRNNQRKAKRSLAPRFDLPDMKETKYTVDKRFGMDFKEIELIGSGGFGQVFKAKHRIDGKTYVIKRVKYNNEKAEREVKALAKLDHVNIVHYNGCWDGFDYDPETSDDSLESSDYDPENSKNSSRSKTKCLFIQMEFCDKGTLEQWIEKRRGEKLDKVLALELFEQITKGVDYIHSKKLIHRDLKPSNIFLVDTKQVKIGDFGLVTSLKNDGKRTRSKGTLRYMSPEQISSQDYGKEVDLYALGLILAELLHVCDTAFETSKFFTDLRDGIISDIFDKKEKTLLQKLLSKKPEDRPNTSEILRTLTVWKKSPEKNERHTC

[6] = molecular target: Ribosomal protein S6 kinase alpha-4 (Homo sapiens) (UniProt O75676); test: Inhibition of N-terminal RPS6KA4 […] domain 1 (unknown origin) assessed as residual activity at 1000 nM by KINOMEscan analysis relative to control
Ribosomal protein S6 kinase alpha-4 (Homo sapiens), sequence (O75676 whole entry, looked up): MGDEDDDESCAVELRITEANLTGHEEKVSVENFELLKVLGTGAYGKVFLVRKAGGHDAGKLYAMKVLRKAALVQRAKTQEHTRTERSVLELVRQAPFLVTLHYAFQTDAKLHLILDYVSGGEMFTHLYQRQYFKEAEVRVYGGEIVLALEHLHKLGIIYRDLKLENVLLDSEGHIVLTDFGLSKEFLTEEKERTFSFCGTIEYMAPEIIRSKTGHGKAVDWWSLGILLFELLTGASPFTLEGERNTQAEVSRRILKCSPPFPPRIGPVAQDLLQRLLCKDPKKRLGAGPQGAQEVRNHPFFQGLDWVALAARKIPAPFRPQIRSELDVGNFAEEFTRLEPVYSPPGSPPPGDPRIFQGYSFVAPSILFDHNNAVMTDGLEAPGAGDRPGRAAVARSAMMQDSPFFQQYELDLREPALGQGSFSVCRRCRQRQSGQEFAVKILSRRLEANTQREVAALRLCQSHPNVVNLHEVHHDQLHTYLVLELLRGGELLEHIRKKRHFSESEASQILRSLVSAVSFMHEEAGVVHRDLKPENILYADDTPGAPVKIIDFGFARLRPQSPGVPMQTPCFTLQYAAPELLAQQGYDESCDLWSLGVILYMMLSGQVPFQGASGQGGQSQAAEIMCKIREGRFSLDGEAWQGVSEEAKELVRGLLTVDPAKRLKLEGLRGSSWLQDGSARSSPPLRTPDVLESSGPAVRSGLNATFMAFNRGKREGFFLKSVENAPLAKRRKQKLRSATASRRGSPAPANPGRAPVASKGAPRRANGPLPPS

[7] = molecular target: T2, NUAK family SNF1-like kinase 2 (Homo sapiens) (UniProt Q9H093); test: Inhibition of SNARK (unknown origin) assessed as residual activity at 1000 nM by KINOMEscan analysis relative to control
T2 sequence (whole entry): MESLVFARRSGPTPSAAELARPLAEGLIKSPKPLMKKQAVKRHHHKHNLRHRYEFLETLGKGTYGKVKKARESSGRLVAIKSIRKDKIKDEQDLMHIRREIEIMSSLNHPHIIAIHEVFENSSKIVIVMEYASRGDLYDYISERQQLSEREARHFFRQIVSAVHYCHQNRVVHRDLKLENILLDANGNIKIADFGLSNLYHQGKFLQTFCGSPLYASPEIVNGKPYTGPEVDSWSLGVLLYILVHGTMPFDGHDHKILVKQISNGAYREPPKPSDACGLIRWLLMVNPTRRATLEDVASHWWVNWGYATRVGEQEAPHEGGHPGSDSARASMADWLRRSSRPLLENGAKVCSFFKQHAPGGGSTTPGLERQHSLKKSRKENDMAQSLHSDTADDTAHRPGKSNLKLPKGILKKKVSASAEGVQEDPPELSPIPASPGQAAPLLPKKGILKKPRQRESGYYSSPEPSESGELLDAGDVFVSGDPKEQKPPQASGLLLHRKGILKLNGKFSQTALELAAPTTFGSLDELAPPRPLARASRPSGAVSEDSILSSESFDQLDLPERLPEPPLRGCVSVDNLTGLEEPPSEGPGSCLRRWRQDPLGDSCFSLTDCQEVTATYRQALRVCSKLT

[8] = molecular target: Serine/threonine-protein kinase 16 (Homo sapiens) (UniProt O75716); test: Inhibition of STK16 (unknown origin) assessed as residual activity at 1000 nM by KINOMEscan analysis relative to control
Serine/threonine-protein kinase 16 (Homo sapiens), sequence (O75716 whole entry): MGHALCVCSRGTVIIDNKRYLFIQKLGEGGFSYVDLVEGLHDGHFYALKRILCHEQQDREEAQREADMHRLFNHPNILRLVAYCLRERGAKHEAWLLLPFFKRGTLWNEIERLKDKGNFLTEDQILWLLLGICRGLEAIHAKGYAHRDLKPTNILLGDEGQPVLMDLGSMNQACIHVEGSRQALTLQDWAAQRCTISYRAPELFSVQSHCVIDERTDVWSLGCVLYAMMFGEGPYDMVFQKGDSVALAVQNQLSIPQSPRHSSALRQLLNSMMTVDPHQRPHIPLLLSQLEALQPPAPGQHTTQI

[9] = molecular target: Serine/threonine-protein kinase 35 (Homo sapiens) (UniProt Q8TDR2); test: Inhibition of STK35 (unknown origin) assessed as residual activity at 1000 nM by KINOMEscan analysis relative to control
Serine/threonine-protein kinase 35 (Homo sapiens), sequence (Q8TDR2 whole entry): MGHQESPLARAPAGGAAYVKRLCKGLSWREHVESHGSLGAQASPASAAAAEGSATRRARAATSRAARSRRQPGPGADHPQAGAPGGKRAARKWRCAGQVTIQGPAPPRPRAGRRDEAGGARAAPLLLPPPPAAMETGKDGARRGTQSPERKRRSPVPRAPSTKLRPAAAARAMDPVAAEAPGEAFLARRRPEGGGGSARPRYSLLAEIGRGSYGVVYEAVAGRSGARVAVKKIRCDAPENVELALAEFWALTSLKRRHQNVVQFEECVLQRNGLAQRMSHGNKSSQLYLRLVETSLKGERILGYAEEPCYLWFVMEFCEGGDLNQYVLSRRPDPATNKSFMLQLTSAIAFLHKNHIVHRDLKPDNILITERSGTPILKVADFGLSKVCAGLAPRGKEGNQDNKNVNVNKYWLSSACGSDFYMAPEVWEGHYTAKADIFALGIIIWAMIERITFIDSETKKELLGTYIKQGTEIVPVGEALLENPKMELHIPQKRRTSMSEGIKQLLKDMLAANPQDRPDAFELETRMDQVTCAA

Calu-1 = test: Antiproliferative activity against human Calu-1 cells assessed as inhibition of cell viability incubated for 72 hrs by Cell Titer Glo assay; format: functional, cell-based; details: Calu-1, 72 h

Row | Compound | Activity [1] [%] | Activity [2] [%] | Activity [3] [%] | Activity [4] [%] | Activity [5] [%] | Activity [6] [%] | Activity [7] [%] | Activity [8] [%] | Activity [9] [%] | IC50 (Calu-1) [µM]
1 | COc1cc2nc(C)nc(N[C@H](C)c3cccc(-c4cn[nH]c4)c3)c2cc1OC | 77 | 35 | 89 | 100 | 72 | 0 | 100 | 74 | 92 | 17
2 | CNCc1ccccc1-c1csc([C@@H](C)Nc2nc(C)nc3cc(OC)c(OC)cc23)c1 [BAY-293] | – | – | – | – | – | – | – | – | – | 3.19
3 | COc1cc2ncnc(N[C@H](C)c3cccc4ccccc34)c2cc1OC | 100 | 100 | 96 | 100 | 92 | 100 | 95 | 93 | 100 | –
